We go through 51 molecules from patent US5840917A, “Phosphorylamides, their preparation and use” (Takeda Chemical Industries, Ltd., priority 1995, dated 1998).

The test system of one experiment is Helicobacter pylori (CPY-433 F4). Description: Bacteria eradication effect of urease inhibitor (in vivo) in infected mice. Particulars: 2 days for therapy; male ICR mice; 10 mg/kg p.o. twice daily; lansoprazole 30 mg/kg s.c. once daily before first dose.
For `CCc1ccc(C(=O)NP(N)(N)=O)s1` [Example 9, N-(Diaminophosphinyl)-5-ethyl-2-thiophenecarboxamide], the “Eradication Rate” value is recorded as 1/5.
Same read-out and setting: then `Cc1cc(C(=O)NP(N)(N)=O)c(C)s1` [Example 32, N-(Diaminophosphinyl)-2,5-dimethyl-3-thiophenecarboxamide], with 2/5.

Still in this experiment, the particulars now being: 4 days for therapy; male ICR mice; 10 mg/kg p.o. twice daily; lansoprazole 30 mg/kg s.c. once daily before first dose; control 0/5.
For `NP(N)(=O)NC(=O)c1ccc(Cl)s1` [Example 5, N-(Diaminophosphinyl)-5-chloro-2-thiophenecarboxamide], the “Eradication Rate” value is given as 3/5.

For a further experiment, the target named is T1, Helicobacter pylori-derived urease (Helicobacter pylori, UniProt P69996).
T1 construct: an urease solution prepared from Helicobacter pylori; endogenous in cells
T1 sequence (P69996 whole entry, looked up): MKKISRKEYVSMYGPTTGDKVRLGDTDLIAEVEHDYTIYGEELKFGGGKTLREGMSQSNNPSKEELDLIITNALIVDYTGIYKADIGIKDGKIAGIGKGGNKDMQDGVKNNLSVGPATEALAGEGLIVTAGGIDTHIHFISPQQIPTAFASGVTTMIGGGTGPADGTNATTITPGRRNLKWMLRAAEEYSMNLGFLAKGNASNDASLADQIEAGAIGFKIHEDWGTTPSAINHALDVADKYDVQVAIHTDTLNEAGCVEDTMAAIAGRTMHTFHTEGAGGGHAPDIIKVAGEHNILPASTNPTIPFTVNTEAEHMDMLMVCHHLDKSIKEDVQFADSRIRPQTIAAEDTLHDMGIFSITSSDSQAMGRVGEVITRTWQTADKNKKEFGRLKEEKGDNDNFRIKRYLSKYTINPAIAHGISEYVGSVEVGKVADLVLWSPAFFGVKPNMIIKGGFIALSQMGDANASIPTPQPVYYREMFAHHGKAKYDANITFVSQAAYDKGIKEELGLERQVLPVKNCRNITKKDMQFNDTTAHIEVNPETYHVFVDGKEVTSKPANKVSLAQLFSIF
Nature of the experiment: Screening of urease inhibitors (ammonia yield from urea). The class given is biochemical.
Conditions: not given
The method, then:
Screening of Urease Inhibitors
One hundred (100) μl of 100 mM Bis-Tris buffer (pH 6.5) and 60 μl of an urease solution prepared from Helicobacter pylori were added to 20 μl of a test drug dissolved in 0.1% dimethylformamide solution. The mixture was incubated at room temperature for 30 minutes, and then 20 μl of 100 mM urea was added. The mixture was kept at room temperature for 10 minutes, and then the yielded ammonia in the incubation mixture was measured using a commercial test kit (Ammonia Test Wako®; Wako Pure Chemical). The percent inhibition against the yield of ammonia in the solvent addition group was calculated to obtain the IC50 value.
Regarding `CCc1ccc(C(=O)NP(N)(N)=O)s1` [Example 9, N-(Diaminophosphinyl)-5-ethyl-2-thiophenecarboxamide], the IC50 – broadly, the concentration at which inhibition is half-maximal – is 13 nM.
Still for that read-out and setting: then `NP(N)(=O)NC(=O)c1ccc(Cl)s1` [Example 5, N-(Diaminophosphinyl)-5-chloro-2-thiophenecarboxamide], with 3 nM; and `Cc1cc(C(=O)NP(N)(N)=O)c(C)s1` [Example 32, N-(Diaminophosphinyl)-2,5-dimethyl-3-thiophenecarboxamide], with 8.7 nM; and `NP(N)(=O)NC(=O)COc1cccc(F)c1` [Example 60, N-(Diaminophosphinyl)-3-fluorophenoxyacetamide], with 3.6 nM.
Still for that read-out and setting: then `NP(N)(=O)NC(=O)C=Cc1ccc(F)cc1` [compound 20, N-(Diaminophosphinyl)-4-fluorocinnamamide], with 6.5 nM; and `Cc1ccc(C(=O)NP(N)(N)=O)cc1` [Reference Example 15, N-(Diaminophosphinyl)-4-methylbenzamide], with 17 nM.
On to `N#CC(=Cc1cccs1)C(=O)NP(N)(N)=O` [Example 79, N-(Diaminophosphinyl)-2-cyano-3-(2-thienyl)propenamide], for which the IC50 amounted to 6 nM.
On the same count and under the same terms, then `Cc1ccc2c(Cl)c(C(=O)NP(N)(N)=O)sc2c1` [Example 71, N-(Diaminophosphinyl)-3-chloro-6-methylbenzothiophenecarboxamide], with 1.9 nM; and `NP(N)(=O)NC(=O)c1cc(F)cc(F)c1` [compound 21, N-(Diaminophosphinyl)-3,5-difluorobenzamide], with 7.9 nM.
For `NP(N)(=O)NC(=O)C=Cc1ccccc1[N+](=O)[O-]` [compound 33, N-(Diaminophosphinyl)-2-nitrocinnamamide], half-maximal inhibition (IC50) required 8.3 nM.
On the same count and under the same terms, then `NP(N)(=O)NC(=O)c1ccccc1F` [Reference Example 16, N-(Diaminophosphinyl)-2-fluorobenzamide], with 2.7 nM; and `NP(N)(=O)NC(=O)c1ccc(Cl)o1` [Example 42, N-(Diaminophosphinyl)-5-chloro-2-furancarboxamide], with 2.3 nM.
Same read-out and setting: then `Cc1ccsc1C(=O)NP(N)(N)=O` [Example 4, N-(Diaminophosphinyl)-3-methyl-2-thiophenecarboxamide], with 6.8 nM; and `NP(N)(=O)NC(=O)c1cccs1` [Example 1, N-(Diaminophosphinyl)-2-thiophenecarboxamide], with 1.2 nM; and `NP(N)(=O)NC(=O)c1ccc(C(F)F)o1` [Example 47, N-(Diaminophosphinyl)-5-difluoromethyl-2-furancarboxamide], with 1.9 nM.
Still for that read-out and setting: then `NP(N)(=O)NC(=O)COc1ccc(Cl)cc1` [Example 55, N-(Diaminophosphinyl)-4-chlorophenoxyacetamide], with 3 nM; and `NP(N)(=O)NC(=O)c1cccc(Cl)c1` [compound 27, N-(Diaminophosphinyl)-3-chlorobenzamide], with 3.9 nM; and `N#Cc1ccc(OCC(=O)NP(N)(N)=O)cc1` [Example 57, N-(Diaminophosphinyl)-4-cyanophenoxyacetamide], with 7.5 nM.
In turn, `COc1ccc(OCC(=O)NP(N)(N)=O)cc1` [Example 53, N-(Diaminophosphinyl)-4-methoxyphenoxyacetamide] registered a half-inhibitory concentration (IC50) of 7.9 nM.
Still for that read-out and setting: then `NP(N)(=O)NC(=O)CCc1ccc(F)cc1` [Reference Example 38, N-(Diaminophosphinyl)-3-(4-fluorophenyl)propionamide], with 9.7 nM; and `Cc1c(C(=O)NP(N)(N)=O)csc1Cl` [Example 87, N-(Diaminophosphinyl)-5-chloro-4-methyl-3-thiophenecarboxamide], with 2.5 nM; and `NP(N)(=O)NC(=O)Cn1cnc2ccccc21` [Example 83, N-(Diaminophosphinyl)-1-benzimidazolylacetamide], with 7 nM.
In turn, `NP(N)(=O)NC(=O)c1ccsc1C(F)F` [Example 20, N-(Diaminophosphinyl)-2-difluoromethyl-3-thiophenecarboxamide] yielded an IC50 of 2.5 nM.
In turn, `NP(N)(=O)NC(=O)c1ccccc1[N+](=O)[O-]` [compound 18, N-(Diaminophosphinyl)-2-nitrobenzamide] showed an IC50 of 5.1 nM.
Still for that read-out and setting: then `Cc1cc(C)c(C)c(OCC(=O)NP(N)(N)=O)c1` [Example 56, N-(Diaminophosphinyl)-2,3,5-trimethylphenoxyacetamide], with 41 nM; and `NP(N)(=O)NC(=O)c1cc(Cl)c(Cl)s1` [Example 36, N-(Diaminophosphinyl)-4,5-dichloro-2-thiophenecarboxamide], with 7.4 nM; and `N#Cc1ccc(C=CC(=O)NP(N)(N)=O)cc1` [compound 32, N-(Diaminophosphinyl)-4-cyanocinnamamide], with 14 nM.
The molecule `COc1csc(C(=O)NP(N)(N)=O)c1` [Example 24, N-(Diaminophosphinyl)-4-methoxy-2-thiophenecarboxamide] returned an IC50 of 9.1 nM.
Molecule `Nc1ccc(OCC(=O)NP(N)(N)=O)cc1` [compound 44, N-(Diaminophosphinyl)-4-aminophenoxyacetamide] came in with an IC50 of 11 nM.
Still for that read-out and setting: then `NP(N)(=O)NC(=O)c1ccc(C(F)F)s1` [Example 13, N-(Diaminophosphinyl)-5-difluoromethyl-2-thiophenecarboxamide], with 5.2 nM; and `NP(N)(=O)NC(=O)c1ccccc1C(F)(F)F` [compound 24, N-(Diaminophosphinyl)-2-trifluoromethylbenzamide], with 8 nM; and `Cc1oc(Cl)cc1C(=O)NP(N)(N)=O` [Example 50, N-(Diaminophosphinyl)-5-chloro-2-methyl-3-furancarboxamide], with 7.5 nM.
`NP(N)(=O)NC(=O)c1csc([N+](=O)[O-])c1` [Example 21, N-(Diaminophosphinyl)-5-nitro-3-thiophenecarboxamide] had an IC50 of 4.3 nM.
The same measure, in the same setting: then `NP(N)(=O)NC(=O)c1sccc1Br` [Example 16, N-(Diaminophosphinyl)-3-bromo-2-thiophenecarboxamide], with 0.8 nM.
Same read-out and setting: then `NP(N)(=O)NC(=O)C=Cc1ccccc1` [Reference Example 4, N-(Diaminophosphinyl)cinnamamide], with 10 nM; and `NP(N)(=O)NC(=O)c1cc(Br)sc1Cl` [Example 86, N-(Diaminophosphinyl)-5-bromo-2-chloro-3-thiophenecarboxamide], with 0.9 nM.
The same measure, in the same setting: then `NP(N)(=O)NC(=O)c1sccc1Cl` [Example 14, N-(Diaminophosphinyl)-3-chloro-2-thiophenecarboxamide], with 1.1 nM; and `NP(N)(=O)NC(=O)CSc1ccc(F)cc1` [Example 62, N-(Diaminophosphinyl)-4-fluorophenylthioacetamide], with 2.8 nM; and `NP(N)(=O)NC(=O)c1c(F)cccc1F` [Reference Example 9, N-(Diaminophosphinyl)-2,6-difluorobenzamide], with 9.7 nM.
`NP(N)(=O)NC(=O)CSc1ccccc1` [Example 61, N-(Diaminophosphinyl)-phenylthioacetamide] came in with an IC50 of 2.8 nM.
Still for that read-out and setting: then `NP(N)(=O)NC(=O)COc1ccc([N+](=O)[O-])cc1` [Example 52, N-(Diaminophosphinyl)-4-nitrophenoxyacetamide], with 12 nM; and `NP(N)(=O)NC(=O)c1ccc([N+](=O)[O-])s1` [Example 10, N-(Diaminophosphinyl)-5-nitro-thiophenecarboxamide], with 3.6 nM; and `NP(N)(=O)NC(=O)Cc1noc2ccccc12` [Example 75, N-(Diaminophosphinyl)-3-benzisoxazolylacetamide], with 22 nM.
On the same count and under the same terms, then `NP(N)(=O)NC(=O)c1ccc(F)cc1F` [Reference Example 10, N-(Diaminophosphinyl)-2,4-difluorobenzamide], with 7.8 nM; and `NP(N)(=O)NC(=O)Cc1cccs1` [Example 80, N-(Diaminophosphinyl)-2-thienylacetamide], with 4.4 nM; and `NP(N)(=O)NC(=O)COc1cccc(Cl)c1` [Example 58, N-(Diaminophosphinyl)-3-chlorophenoxyacetamide], with 3 nM.
On the same count and under the same terms, then `Cc1sc(Cl)cc1C(=O)NP(N)(N)=O` [Example 33, N-(Diaminophosphinyl)-5-chloro-2-methyl-3-thiophenecarboxamide], with 1.9 nM.
`NP(N)(=O)NC(=O)c1ccc2ccccc2c1` [compound 28, N-(Diaminophosphinyl)-2-naphthalenecarboxamide] had an IC50 of 35 nM.
On the same count and under the same terms, then `NP(N)(=O)NC(=O)CSc1nc2cc(Cl)ccc2s1` [Example 65, N-(Diaminophosphinyl)-5-chloro-2-benzothiazolylthioacetamide], with 2.3 nM.
As to `NP(N)(=O)NC(=O)CCc1cccc(F)c1` [compound 42, N-(Diaminophosphinyl)-3-(3-fluorophenyl) propionamide], the half-inhibitory concentration (IC50) was determined as 22 nM.

Still in this experiment, the particulars now being: Bis-Tris pH 6.5, room temperature, 30 min preincubation, 10 min with urea; read-out: IC50, inhibitory effect against Helicobacter pylori-derived urease.
Regarding `CCOc1ccc2sc(SCC(=O)NP(N)(N)=O)nc2c1` [Example 66, N-(Diaminophosphinyl)-5-ethoxy-2-benzothiazolylthioacetamide], the IC50 came to 10 nM.
